Test results taken from the supplement of paper PMC10307832.

What was measured:
Test in all cases: relative viability (nuclei count vs DMSO), 5 days (fraction); higher = more cells survive
NCI-H647 = tested on: NCI-H647
Summary of the method: (§1)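 Each reported value is a median over duplicate plates. It expresses relative viability: treated-well nuclei count divided by vehicle-well nuclei count. Lung cancer cell lines in 1536-well plates were dosed by pin tool a day after seeding, alone with one drug or with a fixed anchor-drug dose plus five library-drug doses (not always all listed) in √10 steps, and nuclei were counted after 5 days.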

NCI-H2347 = tested on: NCI-H2347
Summary of the method: as §1

PC-14 = tested on: PC-14
Summary of the method: as §1

NCI-H661 = tested on: NCI-H661
Summary of the method: as §1

NCI-H1993 = tested on: NCI-H1993
Summary of the method: as §1

SW 1573 = tested on: SW 1573
Summary of the method: as §1

NCI-H322M = tested on: NCI-H322M
Summary of the method: as §1

NCI-H1915 = tested on: NCI-H1915
Summary of the method: as §1

NCI-H358 = tested on: NCI-H358
Summary of the method: as §1

EMC-BAC-2 = tested on: EMC-BAC-2
Summary of the method: as §1

HOP-62 = tested on: HOP-62
Summary of the method: as §1

NCI-H1563 = tested on: NCI-H1563
Summary of the method: as §1

NCI-H2085 = tested on: NCI-H2085
Summary of the method: as §1

NCI-H727 = tested on: NCI-H727
Summary of the method: as §1

NCI-H2023 = tested on: NCI-H2023
Summary of the method: as §1

LCLC-97TM1 = tested on: LCLC-97TM1
Summary of the method: as §1

LXF-289 = tested on: LXF-289
Summary of the method: as §1

NCI-H2126 = tested on: NCI-H2126
Summary of the method: as §1

H3255 = tested on: H3255
Summary of the method: as §1

SK-LU-1 = tested on: SK-LU-1
Summary of the method: as §1

BEN = tested on: BEN
Summary of the method: as §1

NCI-H2009 = tested on: NCI-H2009
Summary of the method: as §1

Clc1ccc(Nc2nnc(Cc3ccncc3)c3ccccc23)cc1 [Vatalanib] + C[C@]1(O)C[C@@H](c2nc(-c3ccc4ccc(-c5ccccc5)nc4c3)c3c(N)nccn32)C1 [Linsitinib] (partner 1 µM)
relative viability (NCI-H647; first compound 0.04 µM): 1.02 | relative viability (NCI-H647; first compound 0.1265 µM): 1.14 | relative viability (NCI-H647; first compound 0.4 µM): 1.2 | relative viability (NCI-H647; first compound 1.265 µM): 1.21 | relative viability (NCI-H647; first compound 4 µM): 1.09 | relative viability (NCI-H2347; first compound 0.04 µM): 1.01 | relative viability (NCI-H2347; first compound 0.1265 µM): 0.908 | relative viability (NCI-H2347; first compound 0.4 µM): 0.976 | relative viability (NCI-H2347; first compound 1.265 µM): 0.901 | relative viability (NCI-H2347; first compound 4 µM): 0.942 | relative viability (PC-14; first compound 0.04 µM): 0.955 | relative viability (PC-14; first compound 0.1265 µM): 0.905 | relative viability (PC-14; first compound 0.4 µM): 1.03 | relative viability (PC-14; first compound 1.265 µM): 0.955 | relative viability (PC-14; first compound 4 µM): 0.871 | relative viability (NCI-H661; first compound 0.04 µM): 0.59 | relative viability (NCI-H661; first compound 0.1265 µM): 0.477 | relative viability (NCI-H661; first compound 0.4 µM): 0.616 | relative viability (NCI-H661; first compound 1.265 µM): 0.581 | relative viability (NCI-H661; first compound 4 µM): 0.581 | relative viability (NCI-H1993; first compound 0.04 µM): 0.699 | relative viability (NCI-H1993; first compound 0.1265 µM): 0.754 | relative viability (NCI-H1993; first compound 0.4 µM): 0.745 | relative viability (NCI-H1993; first compound 1.265 µM): 0.727 | relative viability (NCI-H1993; first compound 4 µM): 0.734 | relative viability (SW 1573; first compound 0.04 µM): 1 | relative viability (SW 1573; first compound 0.1265 µM): 0.791 | relative viability (SW 1573; first compound 0.4 µM): 0.781 | relative viability (SW 1573; first compound 1.265 µM): 0.802 | relative viability (SW 1573; first compound 4 µM): 0.723 | relative viability (NCI-H322M; first compound 0.04 µM): 0.939 | relative viability (NCI-H322M; first compound 0.1265 µM): 0.83 | relative viability (NCI-H322M; first compound 0.4 µM): 0.975 | relative viability (NCI-H322M; first compound 1.265 µM): 0.959 | relative viability (NCI-H322M; first compound 4 µM): 0.919 | relative viability (NCI-H1915; first compound 0.04 µM): 1.06 | relative viability (NCI-H1915; first compound 0.1265 µM): 1.09 | relative viability (NCI-H1915; first compound 0.4 µM): 1.09 | relative viability (NCI-H1915; first compound 1.265 µM): 1.04 | relative viability (NCI-H1915; first compound 4 µM): 1.09 | relative viability (NCI-H358; first compound 0.04 µM): 0.898 | relative viability (NCI-H358; first compound 0.1265 µM): 0.718 | relative viability (NCI-H358; first compound 0.4 µM): 0.917 | relative viability (NCI-H358; first compound 1.265 µM): 0.699 | relative viability (NCI-H358; first compound 4 µM): 0.578 | relative viability (EMC-BAC-2; first compound 0.04 µM): 0.817 | relative viability (EMC-BAC-2; first compound 0.1265 µM): 0.762 | relative viability (EMC-BAC-2; first compound 0.4 µM): 0.793 | relative viability (EMC-BAC-2; first compound 1.265 µM): 0.808 | relative viability (EMC-BAC-2; first compound 4 µM): 0.802 | relative viability (HOP-62; first compound 0.04 µM): 0.785 | relative viability (HOP-62; first compound 0.4 µM): 1.02 | relative viability (HOP-62; first compound 1.265 µM): 0.922 | relative viability (HOP-62; first compound 4 µM): 0.876 | relative viability (NCI-H1563; first compound 0.04 µM): 1.42 | relative viability (NCI-H1563; first compound 0.1265 µM): 1.27 | relative viability (NCI-H1563; first compound 0.4 µM): 1.24 | relative viability (NCI-H1563; first compound 1.265 µM): 1.12 | relative viability (NCI-H1563; first compound 4 µM): 1.2 | relative viability (NCI-H2085; first compound 0.04 µM): 0.919 | relative viability (NCI-H2085; first compound 0.1265 µM): 0.974 | relative viability (NCI-H2085; first compound 0.4 µM): 1.05 | relative viability (NCI-H2085; first compound 1.265 µM): 0.846 | relative viability (NCI-H2085; first compound 4 µM): 0.886 | relative viability (NCI-H727; first compound 0.04 µM): 0.3 | relative viability (NCI-H727; first compound 0.1265 µM): 0.184 | relative viability (NCI-H727; first compound 0.4 µM): 0.358 | relative viability (NCI-H727; first compound 1.265 µM): 0.236 | relative viability (NCI-H727; first compound 4 µM): 0.285 | relative viability (NCI-H2023; first compound 0.04 µM): 0.726 | relative viability (NCI-H2023; first compound 0.1265 µM): 0.735 | relative viability (NCI-H2023; first compound 0.4 µM): 0.815 | relative viability (NCI-H2023; first compound 1.265 µM): 0.571 | relative viability (NCI-H2023; first compound 4 µM): 0.705 | relative viability (LCLC-97TM1; first compound 0.04 µM): 0.183 | relative viability (LCLC-97TM1; first compound 0.1265 µM): 0.17 | relative viability (LCLC-97TM1; first compound 0.4 µM): 0.189 | relative viability (LCLC-97TM1; first compound 1.265 µM): 0.159 | relative viability (LCLC-97TM1; first compound 4 µM): 0.179 | relative viability (LXF-289; first compound 0.04 µM): 1.04 | relative viability (LXF-289; first compound 0.1265 µM): 0.947 | relative viability (LXF-289; first compound 0.4 µM): 0.957 | relative viability (LXF-289; first compound 1.265 µM): 0.888 | relative viability (LXF-289; first compound 4 µM): 0.919 | relative viability (NCI-H2126; first compound 0.04 µM): 0.669 | relative viability (NCI-H2126; first compound 0.1265 µM): 0.72 | relative viability (NCI-H2126; first compound 0.4 µM): 0.669 | relative viability (NCI-H2126; first compound 1.265 µM): 0.729 | relative viability (NCI-H2126; first compound 4 µM): 0.739 | relative viability (H3255; first compound 0.04 µM): 0.984 | relative viability (H3255; first compound 0.1265 µM): 0.902 | relative viability (H3255; first compound 0.4 µM): 0.702 | relative viability (H3255; first compound 1.265 µM): 0.932 | relative viability (H3255; first compound 4 µM): 0.921 | relative viability (SK-LU-1; first compound 0.04 µM): 1.45 | relative viability (SK-LU-1; first compound 0.1265 µM): 1.13 | relative viability (SK-LU-1; first compound 0.4 µM): 1.28 | relative viability (SK-LU-1; first compound 1.265 µM): 1.04 | relative viability (SK-LU-1; first compound 4 µM): 1.03 | relative viability (BEN; first compound 0.04 µM): 0.992 | relative viability (BEN; first compound 0.1265 µM): 0.785 | relative viability (BEN; first compound 0.4 µM): 0.99 | relative viability (BEN; first compound 1.265 µM): 0.943 | relative viability (BEN; first compound 4 µM): 0.97 | relative viability (NCI-H2009; first compound 0.04 µM): 1.16 | relative viability (NCI-H2009; first compound 0.1265 µM): 1.04 | relative viability (NCI-H2009; first compound 0.4 µM): 1.3 | relative viability (NCI-H2009; first compound 1.265 µM): 1.16 | relative viability (NCI-H2009; first compound 4 µM): 1.18
